Test results as given in article PMC11892739, “Site-specific molecular glues for the 14-3-3/Tau pS214 protein–protein interaction via reversible covalent imine tethering” (RSC Medicinal Chemistry, 2025).

System: 14-3-3γ/Tau pS324 interaction
Assay: Fluorescence anisotropy 14-3-3γ titration with compound and monovalent Tau pS324 peptide
Format: binding
Conditions: for apparent cooperativity factor (app. α), 14-3-3γ/Tau pS324: 2D titrations, 14-3-3γ titrated at varied compound concentrations, saturation of the ratio
Protocol: FA assays in which 14-3-3γ was titrated to a constant concentration of compound (250 μM) in the presence of the distinct monovalent Tau peptide (10 nM) were performed.
The determined stabilization factors are concentration-dependent (here 250 μM of compound) and might differ based on assay design. […] The app. α-factors of these compounds for both 14-3-3/Tau complexes were determined by 14-3-3γ titrations in the presence of varied concentrations of the particular compound (Fig. 5d and e). Both compounds reached saturation for both 14-3-3γ/Tau complexes enabling accurate determination of the α-factor. The app. α-factors of aldehydes 1 and 18 were plotted for both 14-3-3γ/Tau complexes to investigate phospho-binding site selective cooperativity (Fig. 5f and h). To do so, the stabilization factors at a given compound concentration were plotted against the compound concentration, leading to the determination of the app. α-factors. […]
chromatography (HisTrap high performance cartridges, Cytiva). […] Dialyzed protein was concentrated to ∼40 mg/mL, analyzed by Q -Tof LC/MS, and aliquots were flash -frozen for storage at −80 °C. […] Fractions containing the 14 -3-3 protein were pooled and concentrated to ∼60 mg/mL, analyzed Q -Tof LC/MS, and aliquots were flash -frozen for storage at −80°C.
Fluorescence Anisotropy – compound titration
Compound titration assays were performed by titrating compounds (in 1% DMSO, starting at 500 μM) in a 2-fold dilution series to preformed complex of fluorescein -labeled Tau pS2 (10 nM) and 14 -3-3ζ (100 nM) (which represents approximately 20% bound Tau pS2 peptide to 14 -3-3ζ to allow further complex formation by addition of fragments 1) in FA buffer (10 mM HEPES pH 7.4, 150 mM NaCl, 50 µM TCEP, 0.1% (v/v) Tween20, 0.1% (w/v) BSA). […] Measurements were performed directly after plate preparation, using a Tecan SPARK plate reader at room temperature ( λex: 485±20 nm; λem: 535±25 nm; mirror: automatic; flashes: 30; settle time: 1 ms; gain: optimal; Z -position: calculated from well). […]

Structure (SMILES)	apparent cooperativity factor (app. α), 14-3-3γ/Tau pS324	SF250μM for the 14-3-3γ/Tau pS324 complex (250 μM compound, 10 nM Tau pS324 peptide, internal DMSO reference)
O=Cc1ccc(-n2ccnc2-c2ccccc2)cc1Br [Compound 1]	6.8	
CCc1ccc(-c2nccn2-c2ccc(C=O)c(Br)c2)cc1 [Compound 18]	3.6	3.2
